According to patent US9422293B2 (priority 2006, dated 2016):
Counter-ions that a name gives are not always drawn.

Molecular target: rat TRPV1 (Rattus norvegicus (Rat), UniProt O35433)
Settings: read-out: Rat IC50

Chain of rat TRPV1 (O35433 whole entry): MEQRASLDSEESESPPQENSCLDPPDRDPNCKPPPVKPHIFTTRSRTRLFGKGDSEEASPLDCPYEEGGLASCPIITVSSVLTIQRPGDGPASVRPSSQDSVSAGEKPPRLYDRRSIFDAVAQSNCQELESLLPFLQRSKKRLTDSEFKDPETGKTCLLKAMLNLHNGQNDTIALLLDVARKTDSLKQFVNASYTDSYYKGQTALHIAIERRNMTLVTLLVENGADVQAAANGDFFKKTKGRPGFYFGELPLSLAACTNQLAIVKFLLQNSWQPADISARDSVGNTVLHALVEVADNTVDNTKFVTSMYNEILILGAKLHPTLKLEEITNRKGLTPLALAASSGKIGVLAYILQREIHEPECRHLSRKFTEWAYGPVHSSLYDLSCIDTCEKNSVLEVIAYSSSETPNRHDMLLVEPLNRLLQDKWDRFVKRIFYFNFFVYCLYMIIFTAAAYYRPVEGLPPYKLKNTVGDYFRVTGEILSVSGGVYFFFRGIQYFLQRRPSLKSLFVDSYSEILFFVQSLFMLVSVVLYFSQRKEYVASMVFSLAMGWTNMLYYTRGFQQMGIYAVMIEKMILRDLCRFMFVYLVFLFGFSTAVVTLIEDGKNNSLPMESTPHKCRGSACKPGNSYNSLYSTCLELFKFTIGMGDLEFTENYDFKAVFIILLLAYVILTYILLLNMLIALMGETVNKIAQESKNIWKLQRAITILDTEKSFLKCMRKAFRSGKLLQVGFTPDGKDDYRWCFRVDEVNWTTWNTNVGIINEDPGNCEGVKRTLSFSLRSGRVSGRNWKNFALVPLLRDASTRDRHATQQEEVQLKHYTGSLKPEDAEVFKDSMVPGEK

| Structure (SMILES) | IC50 |
| --- | --- |
| CC(C)c1nc2c(c(Nc3ccc(C(=O)N(C)C)cc3)n1)CCN(c1ncccc1C(F)(F)F)CC2 [Example 127, N,N-Dimethyl-4-({2-(1-methylethyl)-7-[3-(trifluoromethyl)pyridin-2-yl]-6,7,8,9-tetrahydro-5H-pyrimido[4,5-d]azepin-4-yl}amino)benzamide] | 19200 nM |
| CC(C)c1nc2c(c(Nc3ccc(C(F)(F)F)c(Cl)c3)n1)CCN(c1ncccc1C(F)(F)F)CC2 [Example 128, N-[3-Chloro-4-(trifluoromethyl)phenyl]-2-(1-methylethyl)-7-[3-(trifluoromethyl)pyridin-2-yl]-6,7,8,9-tetrahydro-5H-pyrimido[4,5-d]azepin-4-amine] | 150 nM |
| CC(C)c1nc2c(c(Nc3ccc(C(C)(C)C#N)cc3)n1)CCN(c1ncccc1C(F)(F)F)CC2 [Example 129, 2-Methyl-2-[4-({2-(1-methylethyl)-7-[3-(trifluoromethyl)pyridin-2-yl]-6,7,8,9-tetrahydro-5H-pyrimido[4,5-d]azepin-4-yl}amino)phenyl]propanenitrile] | 230 nM |
| CC(C)c1nc2c(c(Nc3ccc([N+](=O)[O-])cc3)n1)CCN(c1ncccc1C(F)(F)F)CC2 [Example 136, 2-(1-Methylethyl)-N-(4-nitrophenyl)-7-[3-(trifluoromethyl)pyridin-2-yl]-6,7,8,9-tetrahydro-5H-pyrimido[4,5-d]azepin-4-amine] | 110 nM |
| CC(C)c1ccc(Nc2nc(C(C)C)nc3c2CCN(c2ncccc2C(F)(F)F)CC3)cc1 [Example 137, 2-(1-Methylethyl)-N-[4-(1-methylethyl)phenyl]-7-[3-(trifluoromethyl)pyridin-2-yl]-6,7,8,9-tetrahydro-5H-pyrimido[4,5-d]azepin-4-amine] | 60 nM |
| CC(C)c1nc2c(c(Nc3ccc(C(F)(F)F)c(F)c3)n1)CCN(c1ncccc1C(F)(F)F)CC2 [Example 140, N-[3-Fluoro-4-(trifluoromethyl)phenyl]-2-(1-methylethyl)-7-[3-(trifluoromethyl)pyridin-2-yl]-6,7,8,9-tetrahydro-5H-pyrimido[4,5-d]azepin-4-amine] | 190 nM |
| CC(C)c1nc2c(c(Nc3ccc4c(c3)CCC4)n1)CCN(c1ncccc1C(F)(F)F)CC2 [Example 141, N-(2,3-Dihydro-1H-inden-5-yl)-2-(1-methylethyl)-7-[3-(trifluoromethyl)pyridin-2-yl]-6,7,8,9-tetrahydro-5H-pyrimido[4,5-d]azepin-4-amine hydrochloride salt] | 130 nM |
| CC(C)c1nc2c(c(Nc3ccc(-c4cnco4)cc3)n1)CCN(c1ncccc1C(F)(F)F)CC2 [Example 142, 2-(1-Methylethyl)-N-[4-(1,3-oxazol-5-yl)phenyl]-7-[3-(trifluoromethyl)pyridin-2-yl]-6,7,8,9-tetrahydro-5H-pyrimido[4,5-d]azepin-4-amine] | 2090 nM |
| CC(C)c1nc2c(c(Nc3ccc(C(C)(C)C)c([N+](=O)[O-])c3)n1)CCN(c1ncccc1C(F)(F)F)CC2 [Example 143, N-[4-(1,1-Dimethylethyl)-3-nitrophenyl]-2-(1-methylethyl)-7-[3-(trifluoromethyl)pyridin-2-yl]-6,7,8,9-tetrahydro-5H-pyrimido[4,5-d]azepin-4-amine] | 130 nM |
| FC(F)(F)c1ccc(Nc2nc(-c3ccco3)nc3c2CCN(c2ncccc2C(F)(F)F)CC3)cc1 [Example 144, 2-Furan-2-yl-N-[4-(trifluoromethyl)phenyl]-7-[3-(trifluoromethyl)pyridin-2-yl]-6,7,8,9-tetrahydro-5H-pyrimido[4,5-d]azepin-4-amine] | 240 nM |
| CC(C)(C)c1ccc(Nc2nc(-c3ccco3)nc3c2CCN(c2ncccc2C(F)(F)F)CC3)cc1 [Example 145, N-[4-(1,1-Dimethylethyl)phenyl]-2-furan-2-yl-7-[3-(trifluoromethyl)pyridin-2-yl]-6,7,8,9-tetrahydro-5H-pyrimido[4,5-d]azepin-4-amine] | 240 nM |
| FC(F)(F)c1ccc(Nc2nc(-c3ccoc3)nc3c2CCN(c2ncccc2C(F)(F)F)CC3)cc1 [Example 146, 2-Furan-3-yl-N-[4-(trifluoromethyl)phenyl]-7-[3-(trifluoromethyl)pyridin-2-yl]-6,7,8,9-tetrahydro-5H-pyrimido[4,5-d]azepin-4-amine] | 720 nM |
| CC(C)(C)c1ccc(Nc2nc(-c3ccoc3)nc3c2CCN(c2ncccc2C(F)(F)F)CC3)cc1 [Example 147, N-[4-(1,1-Dimethylethyl)phenyl]-2-furan-3-yl-7-[3-(trifluoromethyl)pyridin-2-yl]-6,7,8,9-tetrahydro-5H-pyrimido[4,5-d]azepin-4-amine] | 110 nM |
| CC(C)c1nc2c(c(Nc3ccc4nsnc4c3)n1)CCN(c1ncccc1C(F)(F)F)CC2 [Example 148, Benzo[1,2,5]thiadiazol-5-yl-[2-isopropyl-7-(3-trifluoromethyl-pyridin-yl)-6,7,8,9-tetrahydro-5H-pyrimido[4,5-d]azepin-4-yl]-amine] | 2170 nM |
| FC(F)(F)c1ccc(Nc2nc(-c3cccs3)nc3c2CCN(c2ncccc2C(F)(F)F)CC3)cc1 [Example 149, 2-(2-Thienyl)-N-[4-(trifluoromethyl)phenyl]-7-[3-(trifluoromethyl)pyridin-2-yl]-6,7,8,9-tetrahydro-5H-pyrimido[4,5-d]azepin-4-amine] | 150 nM |
| FC(F)(F)c1ccc(Nc2nc(-c3ccsc3)nc3c2CCN(c2ncccc2C(F)(F)F)CC3)cc1 [Example 150, 2-(3-Thienyl)-N-[4-(trifluoromethyl)phenyl]-7-[3-(trifluoromethyl)pyridin-2-yl]-6,7,8,9-tetrahydro-5H-pyrimido[4,5-d]azepin-4-amine] | 200 nM |
| Cc1ccc(Nc2nc(C(C)C)nc3c2CCN(c2ncccc2C(F)(F)F)CC3)cc1 [Example 151, 2-(1-Methylethyl)-N-(4-methylphenyl)-7-[3-(trifluoromethyl)pyridin-2-yl]-6,7,8,9-tetrahydro-5H-pyrimido[4,5-d]azepin-4-amine hydrochloride salt] | 820 nM |
| CC(C)c1nc2c(c(Nc3ccc(S(=O)(=O)N4CCCC4)cc3)n1)CCN(c1ncccc1C(F)(F)F)CC2 [Example 152, 2-(1-Methylethyl)-N-[4-(pyrrolidin-1-ylsulfonyl)phenyl]-7-[3-(trifluoromethyl)pyridin-2-yl]-6,7,8,9-tetrahydro-5H-pyrimido[4,5-d]azepin-4-amine] | 550 nM |
| CC(C)c1nc2c(c(Nc3ccc(S(=O)(=O)N(C)C)cc3)n1)CCN(c1ncccc1C(F)(F)F)CC2 [Example 154, N,N-Dimethyl-4-({2-(1-methylethyl)-7-[3-(trifluoromethyl)pyridin-2-yl]-6,7,8,9-tetrahydro-5H-pyrimido[4,5-d]azepin-4-yl}amino)benzenesulfonamide] | 1140 nM |
| CC(C)c1nc2c(c(Nc3ccc(C(F)(F)F)cc3F)n1)CCN(c1ncccc1C(F)(F)F)CC2 [Example 155, N-[2-Fluoro-4-(trifluoromethyl)phenyl]-2-(1-methylethyl)-7-[3-(trifluoromethyl)pyridin-2-yl]-6,7,8,9-tetrahydro-5H-pyrimido[4,5-d]azepin-4-amine] | 3280 nM |
| CC(=O)c1ccc(Nc2nc(N3CCCCC3)nc3c2CCN(c2ncccc2C(F)(F)F)CC3)cc1 [Example 156, 1-[4-({2-Piperidin-1-yl-7-[3-(trifluoromethyl)pyridin-2-yl]-6,7,8,9-tetrahydro-5H-pyrimido[4,5-d]azepin-4-yl}amino)phenyl]ethanone] | 590 nM |
| Fc1cc(Nc2nc(N3CCCCC3)nc3c2CCN(c2ncccc2C(F)(F)F)CC3)ccc1C(F)(F)F [Example 157, N-[3-Fluoro-4-(trifluoromethyl)phenyl]-2-piperidin-1-yl-7-[3-(trifluoromethyl)pyridin-2-yl]-6,7,8,9-tetrahydro-5H-pyrimido[4,5-d]azepin-4-amine] | 70 nM |
| CN(C)S(=O)(=O)c1ccc(Nc2nc(N3CCCCC3)nc3c2CCN(c2ncccc2C(F)(F)F)CC3)cc1 [Example 158, N,N-Dimethyl-4-({2-piperidin-1-yl-7-[3-(trifluoromethyl)pyridin-2-yl]-6,7,8,9-tetrahydro-5H-pyrimido[4,5-d]azepin-4-yl}amino)benzenesulfonamide] | 60 nM |
| CC(C)(C)c1ccc(Nc2nc(N3CCCCC3)nc3c2CCN(c2ncccc2C(F)(F)F)CC3)cc1[N+](=O)[O-] [Example 159, N-[4-(1,1-Dimethylethyl)-3-nitrophenyl]-2-piperidin-1-yl-7-[3-(trifluoromethyl)pyridin-2-yl]-6,7,8,9-tetrahydro-5H-pyrimido[4,5-d]azepin-4-amine] | 30 nM |
| CSc1ccc(Nc2nc(N3CCCCC3)nc3c2CCN(c2ncccc2C(F)(F)F)CC3)cc1 [Example 160, N-[4-(Methylsulfanyl)phenyl]-2-piperidin-1-yl-7-[3-(trifluoromethyl)pyridin-2-yl]-6,7,8,9-tetrahydro-5H-pyrimido[4,5-d]azepin-4-amine] | 100 nM |
| CC(C)c1nc2c(c(Nc3ccc4c(c3)N(C)CCC4)n1)CCN(c1ncccc1C(F)(F)F)CC2 [Example 161, [2-Isopropyl-7-(3-trifluoromethyl-pyridin-2-yl)-6,7,8,9-tetrahydro-5H-pyrimido[4,5-d]azepin-4-yl]-(1-methyl-1,2,3,4-tetrahydro-quinolin-7-yl)-amine] | 130 nM |
| CC(C)c1nc2c(c(Nc3ccc4c(c3)N(C)CCC4(C)C)n1)CCN(c1ncccc1C(F)(F)F)CC2 [Example 162, [2-Isopropyl-7-(3-trifluoromethyl-pyridin-2-yl)-6,7,8,9-tetrahydro-5H-pyrimido[4,5-d]azepin-4-yl]-(1,4,4-trimethyl-1,2,3,4-tetrahydro-quinolin-7-yl)-amine] | 30 nM |
| CN1CCCc2ccc(Nc3nc(N4CCCCC4)nc4c3CCN(c3ncccc3C(F)(F)F)CC4)cc21 [Example 163, (1-Methyl-1,2,3,4-tetrahydro-quinolin-7-yl)-[2-piperidin-1-yl-7-(3-trifluoromethyl-pyridin-2-yl)-6,7,8,9-tetrahydro-5H-pyrimido[4,5-d]azepin-4-yl]-amine hydrochloride salt] | 120 nM |
